Common to all, as to test: Bliss excess, mean over the matrix (fraction); higher = more synergy
The subject of one experiment is GAK (Melanoma). Summed up: (§1)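 Cell lines grown in DMEM/F12 or RPMI with 10% FBS were plated in 1536-well plates and held 24 hours at 37°C, 5% CO2 before 72 hours of exposure to two-drug dose matrices, with DMSO typically at 0.2%. CellTiter-Glo 2.0 luminescence gave viability, which was converted to inhibition. Vehicle wells were set to 0 and blank wells to 1. Combination Emax is the second-highest inhibition in the matrix, and Bliss excess is the observed combination effect minus the expected EA + EB − EA·EB, where EA and EB are the single-agent effects.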

For experiment [1], the system named is HT-1080 (Other Solid Carcinomas). Summed up:
as §1

A further experiment concerns WM35 (Melanoma). Summed up:
as §1

Experiment [2] has as its system ZR-75-30 (Breast Carcinoma). Summed up:
as §1

Experiment [3] concerns NCI-H596 (Other Solid Carcinomas). Summed up: as §1
Experiment [4] has as its system NAMALWA (Burkitt's Lymphoma). Summed up:
as §1

The next experiment concerns NB1 (Neuroblastoma). Summed up: as §1
Experiment [5] relates to DBTRG-05MG (Glioblastoma). Summed up:
as §1

Experiment [6] relates to COR-L88 (Small Cell Lung Carcinoma). Summed up: as §1
In experiment [7] the test system is LCLC-103H (Non-Small Cell Lung Carcinoma). Summed up:
as §1

The test system of experiment [8] is SNU-407 (Colorectal Carcinoma). Summed up: as §1
Experiment [9] concerns P32-ISH (Burkitt's Lymphoma). Summed up:
as §1

In a further experiment the test system is T47D (Breast Carcinoma). Summed up:
as §1

The subject of experiment [10] is SCC-4 (Oral Cavity Carcinoma). Summed up: as §1
The test system of a further experiment is IST-MEL1 (Melanoma). Summed up: as §1
The subject of experiment [11] is BxPC-3 (Pancreatic Carcinoma). Summed up:
as §1

Experiment [12] concerns PL4 (Pancreatic Carcinoma). Summed up: as §1
The next experiment concerns NCI-H2373 (Mesothelioma). Summed up: as §1
In a further experiment the test system is NCI-H226 (Mesothelioma). Summed up: as §1
The test system of experiment [13] is MONO-MAC-6 (Acute Myeloid Leukemia). Summed up: as §1

Regarding `Cc1c2c(nn1C)CSCc1cc(n(C)n1)CSc1cc(c3ccccc3c1)OCCCc1c(C(=O)O)n(C)c3c-2c(Cl)ccc13` [AZD5991] + C[C@@H]1COCCN1C2=NC(=NC(=C2)C3(CC3)[S@](=N)(=O)C)C4=C5C=CNC5=NC=C4 [AZD6738] (first compound max 1 µM, 7x7, partner max 10 µM), the Bliss excess with GAK (Melanoma) is 0.0034; in [1], 0.0041; in the experiment on WM35 (Melanoma), 0.0604; in [2], 0.0285; in [3] it was -0.0172; in experiment [4], -0.0012. Besides, the Bliss excess in the experiment with NB1 (Neuroblastoma) turned out to be 0.0343; in experiment [5], 0.0578; in experiment [6], 0.0555; in experiment [7], 0.0224; in [8] it was 0.0148; in experiment [9], 0.0231. Moreover, the Bliss excess with T47D (Breast Carcinoma) is 0.0333; in experiment [10], -0.0003; in the experiment on IST-MEL1 (Melanoma) it was -0.0344; in experiment [11], -0.01; in experiment [12], 0.0606; in the experiment on NCI-H2373 (Mesothelioma), 0.0293. Further, the values for the Bliss excess (in the experiment on NCI-H226 (Mesothelioma); in experiment [13]) were 0.0298 and -0.02, respectively.

`Cn1cnc2c(F)c(Nc3ccc(Br)cc3Cl)c(C(=O)NOCCO)cc21` [Selumetinib] + C=CCn1c(=O)c2cnc(Nc3ccc(N4CCN(C)CC4)cc3)nc2n1-c1cccc(C(C)(C)O)n1 [AZD1775] (first compound max 10 µM, partner max 1 µM): the Bliss excess with GAK (Melanoma) is -0.008; in experiment [1], -0.0299; with WM35 (Melanoma), 0.0038; in experiment [2], -0.0587; in experiment [3] it was -0.0821; in [4], -0.0104. Also, the Bliss excess is -0.0731 with NB1 (Neuroblastoma); 0.0098 in experiment [5]; -0.011 in experiment [6]; -0.0316 in [7]; 0.0099 in experiment [8]; -0.0186 in [9]. Also, the Bliss excess is -0.0179 in the experiment with T47D (Breast Carcinoma); -0.0376 in experiment [10]; 0.0242 in the experiment on IST-MEL1 (Melanoma); 0.0243 in experiment [11]; -0.0685 in experiment [12]; -0.101 in the experiment with NCI-H2373 (Mesothelioma). The values for the Bliss excess (in the experiment with NCI-H226 (Mesothelioma); in experiment [13]) were -0.0331 and -0.013, respectively.

Turning to `CC(=O)c1c(C)c2cnc(Nc3ccc(N4CCNCC4)cn3)nc2n(C2CCCC2)c1=O` [Palbociclib] + CC1(C)CCC(CN2CCN(c3ccc(C(=O)NS(=O)(=O)c4ccc(NCC5CCOCC5)c([N+](=O)[O-])c4)c(Oc4cnc5[nH]ccc5c4)c3)CC2)=C(c2ccc(Cl)cc2)C1 [Venetoclax] (first compound max 10 µM, 7x7, partner max 1 µM), the Bliss excess with GAK (Melanoma) was -0.034; in experiment [1], -0.0573; in the experiment with WM35 (Melanoma) it was -0.0448; in experiment [2], -0.0434; in [3], -0.0501; in experiment [4] it was -0.0648. In addition, the Bliss excess is -0.0154 in the experiment on NB1 (Neuroblastoma); -0.0477 in [5]; -0.0764 in experiment [6]; -0.0083 in [7]; -0.01 in experiment [8]; -0.0132 in experiment [9]. The Bliss excess in the experiment on T47D (Breast Carcinoma) was 0.0466; in experiment [10], -0.0637; with IST-MEL1 (Melanoma), 0.0117; in [11] it was -0.0429; in experiment [12] it was -0.0521; in the experiment with NCI-H2373 (Mesothelioma), -0.0421. For the same compound, the Bliss excess in the experiment on NCI-H226 (Mesothelioma) is -0.0174; in experiment [13], 0.0129.

For `CN(CCO)CC[C@H](CSc1ccccc1)Nc1ccc(S(=O)(=O)NC(=O)c2ccc(N3CCC([C@@H](O)c4ccccc4-c4ccc(Cl)cc4)CC3)cc2)cc1S(=O)(=O)C(F)(F)F` [AZD4320] + Cn1cnc2c(F)c(Nc3ccc(Br)cc3Cl)c(C(=O)NOCCO)cc21 [Selumetinib] (first compound max 1 µM, 7x7, partner max 3 µM), the Bliss excess in the experiment with GAK (Melanoma) was 0.0028; in [1], -0.0965; in the experiment on WM35 (Melanoma), 0.154; in experiment [2] it was -0.06; in experiment [3], -0.0441; in experiment [4], 0.0105. For the same compound, the Bliss excess in the experiment on NB1 (Neuroblastoma) is 0.0308; in experiment [5], 0.0074; in experiment [6], 0.121; in experiment [7], 0.0112; in [8], -0.0231; in [9] it was 0.044. Further, the Bliss excess with T47D (Breast Carcinoma) was 0.0231; in [10], 0.054; in the experiment on IST-MEL1 (Melanoma), -0.072; in [11] it was 0.0749; in experiment [12] it was 0.0473; in the experiment on NCI-H2373 (Mesothelioma), 0.0263. The Bliss excess is -0.0248 with NCI-H226 (Mesothelioma) and 0.0401 in experiment [13].

Turning to `NC1(C(=O)N[C@@H](CCO)c2ccc(Cl)cc2)CCN(c2ncnc3[nH]ccc23)CC1` [Capivasertib] + C[C@@H]1COCCN1C2=NC(=NC(=C2)C3(CC3)[S@](=N)(=O)C)C4=C5C=CNC5=NC=C4 [AZD6738] (first compound max 10 µM, 7x7, partner max 10 µM), the Bliss excess in the experiment on GAK (Melanoma) is -0.0552; in experiment [1], -0.0473; in the experiment on WM35 (Melanoma), -0.02; in experiment [2], -0.057; in experiment [3] it was -0.0105; in experiment [4] it was -0.0194. Also, the Bliss excess in the experiment on NB1 (Neuroblastoma) is -0.0341; in [5] it was 0.0064; in experiment [6] it was -0.0456; in experiment [7] it was -0.0607; in [8], -0.101; in [9] it was 0.0277. Also, the Bliss excess is -0.0095 in the experiment on T47D (Breast Carcinoma); -0.109 in experiment [10]; -0.0446 in the experiment on IST-MEL1 (Melanoma); -0.0076 in [11]; -0.0328 in experiment [12]; -0.0301 in the experiment with NCI-H2373 (Mesothelioma). Further, the Bliss excess with NCI-H226 (Mesothelioma) is -0.0775; in experiment [13], -0.0397.

The values are drawn from the supplement of paper PMC11061612.
